Values joined by “and” are separate entries in the source; they are usually repeats but may differ in a detail not shown here. Equal values may be shown once.
Test system: 299254-011-R-J1-PDC complex spheroids viability
Assay: Anticancer human tumor 299254-011-R-J1-PDC patient-derived melanoma cell line growth inhibition [GQUAD]
Conditions: for viability, T/C: stronger effect = lower value
Description: DNA G-quadruplex Stabilizer Agents in Combinations in Complex Spheroids
A high-throughput screen of multi-cell type tumor spheroids was designed to identify active combinations of DNA G-quadruplex stabilizer agents and targeted small molecules. Complex spheroids include a stromal component modeled by human endothelial cells (HUVEC) and fibroblasts modeled by human mesenchymal stem cells (MSCs). The concentration ranges selected for each drug and investigational agent were based upon clinically achievable concentrations if the clinical Cmax of the agent was known.
Compounds. The drugs and investigational agents: pidnarulex (CX-5461; NSC782164), APTO-253 (NSC789042), BRACO-19 (NSC847499), peposertib (NSC802822), ceralasertib (NSC780249), elimusertib (NSC800525), camonsertib (NSC841442), AZD-1390 (NSC803789), olaparib (NSC753686), talazoparib (NSC767125), ART-558 (NSC835418), sotorasib (NSC818433), MRTX-1133 (NSC836407), SN-38 (NSC673596), topotecan (NSC609699), etoposide (NSC141540), doxorubicin (NSC123127), gemcitabine (NSC613327), 5-fluorouracil (NSC19893), paclitaxel (NSC125973), vemurafenib (NSC761431), panobinostat (NSC761190), R-306465 (JNJ-16241199; NSC773264), adavosertib (NSC754352), TP-3654 (NSC805149), carboplatin (NSC241240), KSQ-4279 (NSC840948), and staurosporine (NSC755774) were obtained from the National Cancer Institute (NCI) Developmental Therapeutics Program Chemical Repository (34). The FDA-approved anticancer drug set is available from the NCI Developmental Therapeutics Program. […] The stock solutions were prepared in dimethyl sulfoxide (DMSO, Sigma-Aldrich, St. Louis, MO, cat. D2650) at 800-fold the tested concentration and stored at -70 degrees C prior to their use. All drugs and investigational agents were tested over a range starting from a high concentration at or near the clinical Cmax and decreasing in half-log increments. If the clinical Cmax for an agent had not been determined, the highest concentration tested was 10 microM.
2.3 Cell Culture. All cells were maintained in an incubator at 37 degrees C and 5% CO2 with 95% humidity. The PDC lines were cultured according to standard operating procedures established by the NCI PDMR. All PDCs were thawed and cultured in Matrigel-coated flasks prepared with a working solution of 1X Ham's F-12 nutrient mix, without supplementation (Invitrogen, cat. 11765054), 100 U/mL penicillin-streptomycin (Invitrogen, cat. 15140122), and 2.5% Matrigel (Corning Inc., cat. 354248) for the first three passages. The 857933-349-R-J2-PDC line was cultured in 6C/Colon 1B media, which includes advanced DMEM/F-12 (Thermo Fisher Scientific, cat. 12634028), 10 mM HEPES (Thermo Fisher Scientific, cat. 15630080), 1X GlutaMAX supplement (Thermo Fisher Scientific, cat. 35050061), 0.1 mg/mL primocin (InvivoGen, cat. ant-pm-2), 10% defined fetal bovine serum, heat inactivated (HyClone Laboratories Inc., cat. SH30070.03HI), 50% L-WRN conditioned media (ATCC, cat. CRL-3276), 1.25 mM N-Acetyl-L-cysteine (Sigma-Aldrich, cat. A9165), 10 mM nicotinamide (Sigma-Aldrich, cat. N0636), 1X B-27 supplement (Thermo Fisher Scientific, cat. 17504044), 1X N-2 supplement (Thermo Fisher Scientific, cat. 17502048), 10 microM Y-27632 dihydrochloride (Tocris Bioscience, cat. 1254), and 50 ng/mL human EGF recombinant protein (Thermo Fisher Scientific, cat. PHG0311). The 485176-168-R4-J1-PDC line was cultured in Panc media, which includes all 6C/Colon 1B media components plus 100 ng/mL human FGF-10 (Thermo Fisher Scientific, cat. 100-26), 500 nM SB-431542 (Selleckchem, cat. S1067), and gastrin (Tocris, cat. 3006).
[…]
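Also: spheroids exposed to the agents for seven days before readout.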
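For viability, T/C in this document: percent viability relative to DMSO vehicle control wells = 100%.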

In the case of `CCc1c2c(nc3ccc(O)cc13)-c1cc3c(c(=O)n1C2)COC(=O)[C@]3(O)CC`, the viability, T/C (compound 0.000999 µM) is reported as 94.3% and 102% and 120%, the viability, T/C (compound 0.00316 µM) is reported as 83.9% and 104% and 97.4% and the viability, T/C (compound 0.00999 µM) is reported as 87.7% and 72.2% and 92.2%. For the same compound, the viability, T/C (compound 0.0316 µM) was 64.8% and 104% and 70.9%, the viability, T/C (compound 0.0999 µM) was 80% and 86.2% and 77.4% and the viability, T/C (compound 0.316 µM) was 89.8% and 84.2% and 73.6%. For the same compound, the IC50 (curve of compound) was greater than 316 nM.

Work on `CC1COCCN1c1cc(C2(O)CC3CCC(C2)O3)c2cnn(-c3ccn[nH]3)c2n1` (stereo not drawn) + Cc1[nH]c2ccc(F)cc2c1-c1nc2c3cccnc3c3ncccc3c2[nH]1 yielded an IC50 (curve of first compound, second compound 0.0316 µM) of 127 nM, an IC50 (curve of first compound, second compound 0.1 µM) of 135 nM and an IC50 (curve of first compound, second compound 0.316 µM) of 178 nM. For the same compound, the IC50 (curve of first compound, second compound 1 µM) was 125 nM, the IC50 (curve of first compound, second compound 3.16 µM) was 109 nM and the IC50 (curve of first compound, second compound 10 µM) was 83.8 nM. It also gave a viability, T/C (second compound 0.0316 µM, first compound 0.0316 µM) of 83.2%, a viability, T/C (second compound 0.0316 µM, first compound 0.1 µM) of 54.7% and a viability, T/C (second compound 0.0316 µM, first compound 0.316 µM) of 31.3%. The viability, T/C (second compound 0.0316 µM, first compound 1 µM) was 14.4%, the viability, T/C (second compound 0.0316 µM, first compound 3.16 µM) was 12.2% and the viability, T/C (second compound 0.0316 µM, first compound 10 µM) was 8.75%. It also gave a viability, T/C (second compound 0.1 µM, first compound 0.0316 µM) of 72.7%, a viability, T/C (second compound 0.1 µM, first compound 0.1 µM) of 60.4% and a viability, T/C (second compound 0.1 µM, first compound 0.316 µM) of 20.7%. The viability, T/C (second compound 0.1 µM, first compound 1 µM) was 14.7%, the viability, T/C (second compound 0.1 µM, first compound 3.16 µM) was 14.4% and the viability, T/C (second compound 0.1 µM, first compound 10 µM) was 7.02%. The viability, T/C (second compound 0.316 µM, first compound 0.0316 µM) was 77.3%, the viability, T/C (second compound 0.316 µM, first compound 0.1 µM) was 76.6% and the viability, T/C (second compound 0.316 µM, first compound 0.316 µM) was 23.8%. For the same compound, the viability, T/C (second compound 0.316 µM, first compound 1 µM) was 19.6%, the viability, T/C (second compound 0.316 µM, first compound 3.16 µM) was 12.6% and the viability, T/C (second compound 0.316 µM, first compound 10 µM) was 7.48%. The viability, T/C (second compound 1 µM, first compound 0.0316 µM) was 73.7%, the viability, T/C (second compound 1 µM, first compound 0.1 µM) was 55.8% and the viability, T/C (second compound 1 µM, first compound 0.316 µM) was 30.4%. The viability, T/C (second compound 1 µM, first compound 1 µM) was 22.1%, the viability, T/C (second compound 1 µM, first compound 3.16 µM) was 13.7% and the viability, T/C (second compound 1 µM, first compound 10 µM) was 7.91%. It also gave a viability, T/C (second compound 3.16 µM, first compound 0.0316 µM) of 84.5%, a viability, T/C (second compound 3.16 µM, first compound 0.1 µM) of 52.7% and a viability, T/C (second compound 3.16 µM, first compound 0.316 µM) of 22.5%. For the same compound, the viability, T/C (second compound 3.16 µM, first compound 1 µM) was 16%, the viability, T/C (second compound 3.16 µM, first compound 3.16 µM) was 14% and the viability, T/C (second compound 3.16 µM, first compound 10 µM) was 6.07%. For the same compound, the viability, T/C (second compound 10 µM, first compound 0.0316 µM) was 73%, the viability, T/C (second compound 10 µM, first compound 0.1 µM) was 46.9% and the viability, T/C (second compound 10 µM, first compound 0.316 µM) was 21.8%. For the same compound, the viability, T/C (second compound 10 µM, first compound 1 µM) was 15.1%, the viability, T/C (second compound 10 µM, first compound 3.16 µM) was 9.33% and the viability, T/C (second compound 10 µM, first compound 10 µM) was 4.43%.

For `O=C(c1cc(Cc2n[nH]c(=O)c3ccccc23)ccc1F)N1CCN(C(=O)C2CC2)CC1`, the viability, T/C (compound 0.0316 µM) was 94.2% and 117% and 81.5%, the viability, T/C (compound 0.1 µM) was 111% and 86.5% and 85.5% and the viability, T/C (compound 0.316 µM) was 101% and 84.9% and 95.2%. For the same compound, the viability, T/C (compound 1 µM) was 115% and 101% and 91.1%, the viability, T/C (compound 3.16 µM) was 132% and 80.7% and 87.9% and the viability, T/C (compound 10 µM) was 97.2% and 71.2% and 88.4%. It also gave an IC50 (curve of compound) greater than 10000 nM.

In the case of `O=C(NO)c1cnc(N2CCN(S(=O)(=O)c3ccc4ccccc4c3)CC2)nc1`, the viability, T/C (compound 0.0316 µM) is reported as 99.8% and 95.4% and 87.7%, the viability, T/C (compound 0.1 µM) is reported as 103% and 87.4% and 81.9% and the viability, T/C (compound 0.316 µM) is reported as 73.4% and 75% and 32.2%. For the same compound, the viability, T/C (compound 1 µM) was 3.62% and 4.16% and 0.67%, the viability, T/C (compound 3.16 µM) was 0.32% and 0.22% and the viability, T/C (compound 10 µM) was 0.34% and 0.21%. For the same compound, the IC50 (curve of compound) was 465 nM and 475 nM and 210 nM.

— PubChem BioAssay AID2060513 (Molecular Pharmacology Branch, DTP, NCI, 2025)
